Data published in ChEMBL document CHEMBL1201862, “PubChem BioAssay data set” (2004).
Calls of active or inactive are those of the source.

Key:
[1] = target: Luciferin 4-monooxygenase (Photinus pyralis, UniProt P08659); assay: firefly luciferase enzyme inhibitors, dose response, biochemical, luminescence (AID 1891)
[2] = Luminescence Cell-Based Dose Confirmation HTS to Identify Inhibitors of Platelet Dense Granule Release. [Related pubchem assays: 1663 (Primary HTS), 1678 (Summary of Project)]; type: functional
[3] = target: T1, Corticotropin-releasing factor receptor 2/Corticotropin-releasing factor-binding protein (Homo sapiens, UniProt P24387+Q13324); assay: activators of CRF receptor 2 with binding protein – uHTS hits, confirmation (AID 602473); type: functional; conditions: read-out: EC50_Mean
T1 sequence (Q13324 whole entry): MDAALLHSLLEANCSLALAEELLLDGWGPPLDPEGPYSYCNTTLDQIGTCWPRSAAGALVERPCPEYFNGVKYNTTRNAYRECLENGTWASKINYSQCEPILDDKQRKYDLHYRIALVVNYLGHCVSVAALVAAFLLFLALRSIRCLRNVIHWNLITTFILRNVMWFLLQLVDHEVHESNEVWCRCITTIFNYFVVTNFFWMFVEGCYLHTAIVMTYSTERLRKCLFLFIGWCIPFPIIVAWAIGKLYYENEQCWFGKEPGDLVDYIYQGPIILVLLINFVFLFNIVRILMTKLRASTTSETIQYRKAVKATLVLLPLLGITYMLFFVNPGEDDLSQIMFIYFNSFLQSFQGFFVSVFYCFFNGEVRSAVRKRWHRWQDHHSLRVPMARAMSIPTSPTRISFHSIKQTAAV
T1 sequence (P24387 whole entry): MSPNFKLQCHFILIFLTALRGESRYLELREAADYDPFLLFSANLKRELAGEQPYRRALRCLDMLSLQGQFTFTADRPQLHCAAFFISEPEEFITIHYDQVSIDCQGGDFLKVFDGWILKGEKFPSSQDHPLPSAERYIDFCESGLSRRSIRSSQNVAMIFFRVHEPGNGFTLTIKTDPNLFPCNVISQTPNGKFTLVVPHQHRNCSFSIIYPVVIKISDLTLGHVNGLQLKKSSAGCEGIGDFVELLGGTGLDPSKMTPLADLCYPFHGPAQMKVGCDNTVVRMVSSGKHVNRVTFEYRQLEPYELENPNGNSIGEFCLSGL

[4] = target: T1, Corticotropin-releasing factor receptor 2/Corticotropin-releasing factor-binding protein; assay: Dose Response confirmation of uHTS hits for small molecule antagonists of the CRF-binding protein and CRF-R2 receptor complex.; type: functional; conditions: read-out: IC50_Mean
Nonstructural protein 1 = Nonstructural protein 1 (Influenza A virus, UniProt Q194T2); type: functional, Influenza A virus (A/California/07/2009(H1N1))
[5] = HepG2 cell cytotoxicity, dose response, cytotoxicity control for Shn3 inhibitor project, CellTiter-Glo, cherry-picked (AID 624134); type: functional, cell-based
[6] = Shn3 3'UTR reporter inhibitors, dose response, cell-based, Clone20 osteoblasts, firefly luciferase, cherry-picked (AID 624132); type: functional;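 further: firefly luciferase luminescence from reporter carrying the Shn3 3'UTR in osteoblasts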
[7] = control 3'UTR Renilla luciferase suppression, dose response, counter-screen for Shn3 inhibitor project, cell-based, Clone20-Shn3RL, cherry-picked (AID 624133); type: functional
[8] = target: T2, Polyadenylate-binding protein 1 (Homo sapiens, UniProt P11940); assay: PABP1 MLLE–PAM2 interaction inhibitors, dose response, miRNA deadenylation inhibitor project, biochemical, fluorescence polarization, Cy5-PAM2 peptide, secondary (AID 602260); type: functional; conditions: read-out: IC50_Mean
[9] = target: T2, Polyadenylate-binding protein 1; assay: PABP1 MLLE–PAM2 binding inhibitor potency, dose response, biochemical, fluorescence polarization, FITC-PAM2 peptide (AID 602259); type: functional; conditions: read-out: IC50_Mean
[10] = target: T3, RNA-binding protein pos-1 (Caenorhabditis elegans, UniProt G5EF15); assay: inhibitors of POS-1/mex-3 RNA binding, dose response, biochemical, fluorescence polarization (AID 1964);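 further: purified POS-1 fused to maltose binding protein made in E. coli; potency of compounds blocking POS-1 binding to fluorescent RNA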
T3 sequence (G5EF15 whole entry): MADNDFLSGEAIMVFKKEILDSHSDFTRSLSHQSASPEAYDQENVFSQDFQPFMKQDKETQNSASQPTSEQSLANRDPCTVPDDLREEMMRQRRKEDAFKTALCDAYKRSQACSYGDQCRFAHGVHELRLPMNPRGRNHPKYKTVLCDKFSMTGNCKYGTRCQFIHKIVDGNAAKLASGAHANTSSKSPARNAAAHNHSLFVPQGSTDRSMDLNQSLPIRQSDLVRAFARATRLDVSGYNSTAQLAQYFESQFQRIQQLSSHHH

[11] = target: T4, Zinc finger protein mex-5 (Caenorhabditis elegans, UniProt Q9XUB2); assay: MEX-5/TCR-2 RNA interaction inhibitors, dose response, biochemical, C. elegans, fluorescence polarization (AID 1960)
T4 sequence (Q9XUB2 whole entry): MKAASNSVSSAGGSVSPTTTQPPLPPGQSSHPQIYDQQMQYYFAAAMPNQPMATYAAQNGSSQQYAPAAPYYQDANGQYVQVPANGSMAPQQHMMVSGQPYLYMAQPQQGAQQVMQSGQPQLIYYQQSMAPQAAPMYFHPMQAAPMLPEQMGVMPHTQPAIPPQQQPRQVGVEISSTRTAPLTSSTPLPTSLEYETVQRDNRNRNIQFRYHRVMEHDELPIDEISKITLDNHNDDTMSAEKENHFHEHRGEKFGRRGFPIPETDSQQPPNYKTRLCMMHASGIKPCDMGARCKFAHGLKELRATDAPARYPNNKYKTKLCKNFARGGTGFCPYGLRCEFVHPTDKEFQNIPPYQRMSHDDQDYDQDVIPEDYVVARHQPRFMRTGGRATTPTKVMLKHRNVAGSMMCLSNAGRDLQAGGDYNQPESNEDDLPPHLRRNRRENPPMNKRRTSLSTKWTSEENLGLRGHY

Paired box protein Pax-8 = Paired box protein Pax-8 (Homo sapiens, UniProt Q06710); assay: inhibitors of PAX8-driven TPO luciferase reporter, dose response, RMG-I cells, cherry-pick (AID 687027); type: functional, cell-based;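 further: luciferase reporter driven by Pax8 target thyroperoxidase promoter measured by SteadyGlo luminescence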
[12] = target: T5, Heat shock factor protein 1 (Mus musculus, UniProt P38532); assay: inhibition of MG132-induced HSE-luciferase signal, confirmation, cell-based, NIH3T3, luminescence, dose retest (AID 2382); type: functional;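 further: NIH3T3 fibroblasts with HSF1-driven luciferase reporter stressed by proteasome inhibitor MG132; luminescence from HSF1-driven luciferase expression after 8 hours of MG132 stress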
T5 sequence (P38532 whole entry): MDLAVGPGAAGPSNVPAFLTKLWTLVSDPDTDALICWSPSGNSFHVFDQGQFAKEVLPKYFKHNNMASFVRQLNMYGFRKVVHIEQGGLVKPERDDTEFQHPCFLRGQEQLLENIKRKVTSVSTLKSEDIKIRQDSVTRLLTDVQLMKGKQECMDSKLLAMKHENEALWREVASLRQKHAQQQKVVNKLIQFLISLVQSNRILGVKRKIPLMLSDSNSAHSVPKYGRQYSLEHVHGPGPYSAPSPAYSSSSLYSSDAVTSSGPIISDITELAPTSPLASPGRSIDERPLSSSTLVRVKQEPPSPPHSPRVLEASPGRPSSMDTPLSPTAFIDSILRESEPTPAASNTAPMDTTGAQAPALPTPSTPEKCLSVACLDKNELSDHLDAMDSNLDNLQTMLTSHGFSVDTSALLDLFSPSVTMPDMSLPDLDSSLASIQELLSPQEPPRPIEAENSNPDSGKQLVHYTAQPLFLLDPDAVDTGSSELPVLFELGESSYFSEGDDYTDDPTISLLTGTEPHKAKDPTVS

Chain of Paired box protein Pax-8 (Q06710 whole entry): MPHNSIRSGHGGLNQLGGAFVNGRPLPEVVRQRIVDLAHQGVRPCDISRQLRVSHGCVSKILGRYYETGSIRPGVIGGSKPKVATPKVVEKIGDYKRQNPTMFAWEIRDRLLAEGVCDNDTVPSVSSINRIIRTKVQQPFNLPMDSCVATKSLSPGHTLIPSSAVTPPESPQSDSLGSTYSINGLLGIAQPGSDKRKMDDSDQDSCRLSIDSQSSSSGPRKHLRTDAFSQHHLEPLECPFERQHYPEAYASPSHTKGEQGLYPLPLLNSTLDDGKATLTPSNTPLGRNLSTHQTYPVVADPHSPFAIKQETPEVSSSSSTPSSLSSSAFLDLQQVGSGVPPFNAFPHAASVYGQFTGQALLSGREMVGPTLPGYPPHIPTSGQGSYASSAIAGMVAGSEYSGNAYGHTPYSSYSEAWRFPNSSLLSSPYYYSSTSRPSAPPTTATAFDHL
Chain of Luciferin 4-monooxygenase (P08659 whole entry): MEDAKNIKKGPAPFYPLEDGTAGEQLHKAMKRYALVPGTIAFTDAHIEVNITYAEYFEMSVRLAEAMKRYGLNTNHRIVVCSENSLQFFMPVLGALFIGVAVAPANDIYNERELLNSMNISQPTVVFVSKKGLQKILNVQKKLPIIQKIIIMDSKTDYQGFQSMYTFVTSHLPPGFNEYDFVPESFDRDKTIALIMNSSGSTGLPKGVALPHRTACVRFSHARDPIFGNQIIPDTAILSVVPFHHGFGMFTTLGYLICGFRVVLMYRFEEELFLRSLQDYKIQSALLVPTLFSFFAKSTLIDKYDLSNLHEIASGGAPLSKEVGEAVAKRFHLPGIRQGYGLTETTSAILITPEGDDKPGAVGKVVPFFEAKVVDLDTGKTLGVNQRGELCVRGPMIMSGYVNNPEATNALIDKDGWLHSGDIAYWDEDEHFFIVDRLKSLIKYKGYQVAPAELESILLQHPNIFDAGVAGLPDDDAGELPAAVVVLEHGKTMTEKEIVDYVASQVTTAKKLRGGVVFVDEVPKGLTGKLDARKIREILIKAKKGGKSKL
Chain of Nonstructural protein 1 (Q194T2 whole entry): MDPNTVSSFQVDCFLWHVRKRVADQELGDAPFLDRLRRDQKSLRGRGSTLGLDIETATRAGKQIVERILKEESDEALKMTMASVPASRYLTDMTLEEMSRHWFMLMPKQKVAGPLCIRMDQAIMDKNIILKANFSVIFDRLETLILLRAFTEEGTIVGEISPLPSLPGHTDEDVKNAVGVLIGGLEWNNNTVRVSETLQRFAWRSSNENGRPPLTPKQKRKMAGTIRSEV
T2 sequence (P11940 whole entry): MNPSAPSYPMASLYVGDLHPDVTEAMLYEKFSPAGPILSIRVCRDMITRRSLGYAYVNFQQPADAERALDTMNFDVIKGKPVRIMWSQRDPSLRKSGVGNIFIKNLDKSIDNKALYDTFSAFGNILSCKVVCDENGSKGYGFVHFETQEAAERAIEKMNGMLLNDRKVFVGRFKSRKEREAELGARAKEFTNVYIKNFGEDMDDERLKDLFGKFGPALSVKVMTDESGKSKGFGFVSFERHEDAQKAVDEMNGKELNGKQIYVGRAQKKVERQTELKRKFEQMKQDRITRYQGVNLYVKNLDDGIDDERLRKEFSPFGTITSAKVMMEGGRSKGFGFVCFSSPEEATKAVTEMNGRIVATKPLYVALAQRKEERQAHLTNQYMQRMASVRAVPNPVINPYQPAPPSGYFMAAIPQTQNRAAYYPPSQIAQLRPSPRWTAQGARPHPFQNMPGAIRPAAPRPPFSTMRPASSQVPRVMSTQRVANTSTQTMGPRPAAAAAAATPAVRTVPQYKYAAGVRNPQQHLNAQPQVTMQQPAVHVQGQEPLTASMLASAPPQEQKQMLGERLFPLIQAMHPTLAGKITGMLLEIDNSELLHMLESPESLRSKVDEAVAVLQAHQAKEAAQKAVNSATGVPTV

Cc1ccc2c(CC(=O)N3CCN(S(=O)(=O)c4cccs4)CC3)coc2c1
EC50 [1]: > 112 µM (not active) | EC50 [2]: > 112 µM (not active)

CNc1nc2c(N)ncnc2n1[C@H]1O[C@@H](CO)[C@H](O)[C@@H]1O
EC50 [1]: > 112 µM (not active) | EC50 [2]: 1.36 µM (active)

COc1cc(C2C(C#N)=C(N)Oc3[nH]nc(-c4ccccn4)c32)cc(OC)c1OC (centres undefined)
EC50 [3]: > 53 µM (inactive) | IC50 [4]: > 47.1 µM (inactive)

Clc1ccc2nncn2n1
EC50 [3]: > 53 µM (inactive) | IC50 [4]: > 47.1 µM (inactive)

COCc1nnc(NC(=O)CSCc2ccccc2)s1
EC50 [1]: > 112 µM (not active) | EC50 [2]: > 112 µM (not active)

O=[N+]([O-])c1ccc(Nc2ccc(N3CCOCC3)cc2)c([N+](=O)[O-])c1
IC50 (Nonstructural protein 1): 71.6 µM (active)

O=C(NCc1ccncc1)c1cc(F)c(F)cc1Cl
EC50 [3]: > 53 µM (inactive) | IC50 [4]: > 47.1 µM (inactive)

COc1ccc(NC(=O)C2Cc3c(-c4cccc(C(C)=O)c4)ccnc3O2)cc1OC (centres undefined)
AC50 [5]: 7.75 µM (active) | AC50 [6]: 0.799 µM (active) | AC50 [7]: 4.68 µM (active)

Cc1cc(/C=N/NC(=O)c2ccoc2C)cc(C)c1O
EC50 [3]: > 53 µM (inactive) | IC50 [4]: > 47.1 µM (inactive)

COCCn1c(=N)c(C(=O)NCc2ccco2)cc2c(=O)n3cc(C)ccc3nc21
IC50 [8]: 33.2 µM (inactive) | EC50 [3]: > 53 µM (inactive) | IC50 [4]: > 47.1 µM (inactive) | IC50 [9]: 16.7 µM (active)

C=CCN1C(=O)NC(=O)/C(=C/c2c(CCN(C)C(=O)c3ccccc3)cc3c(c2OC)OCO3)C1=O
EC50 [10]: > 300 µM (not active) | EC50 [11]: > 300 µM (not active)

CN1C(=O)C(=Cc2c[nH]c3ccccc23)C(=O)N(C)C1=O
EC50 [10]: 52.9 µM (active) | EC50 [11]: 151 µM (active)

Nc1ncnc(NNC(=O)CNC(=O)c2c(F)cccc2Cl)c1[N+](=O)[O-]
EC50 [3]: > 53 µM (inactive) | EC50 [10]: 0.548 µM (active) | EC50 [11]: 0.241 µM (active) | IC50 [4]: > 47.1 µM (inactive)

O=C(NC1CC1)c1ccc2c(c1)C1C3CCC(C3)C1C(c1ccccc1)N2 (centres undefined)
AC50 (Paired box protein Pax-8): 48.2 µM (active)

O=C1CSC(=S)N1N=Cc1ccccc1O
IC50 (Nonstructural protein 1): 1.75 µM (active)

Cc1cc(C)c2c(CC(=O)Nc3nccs3)coc2c1
EC50 [3]: > 53 µM (inactive) | IC50 [4]: > 47.1 µM (inactive)

S=C(Nc1ccc2c(c1)OCO2)Nc1ccccc1Cl
EC50 [3]: > 53 µM (inactive) | IC50 [4]: > 47.1 µM (inactive)

COc1ccc(NC(=O)/C=C/c2cccc(Br)c2)cn1
EC50 [10]: 16 µM (active) | EC50 [11]: 12.4 µM (active)

Cc1cc(NC(=O)CCN2CCN(C/C=C/c3ccccc3)CC2)ccc1Br
AC50 [5]: > 70 µM (inactive) | AC50 [6]: 10.2 µM (active) | AC50 [7]: 15 µM (active)

OCCN1CCN(CC(O)COc2ccc(Cl)cc2)CC1 (centres undefined)
EC50 [1]: > 112 µM (not active) | EC50 [2]: > 112 µM (not active)

Cc1cccn2c(=O)c3cc(C(=O)NC4CCCC4)c(=N)n(CCc4ccccc4)c3nc12
EC50 [10]: > 300 µM (not active) | EC50 [11]: > 300 µM (not active)

OC(c1cc(-c2cccc(Cl)c2)nc2ccccc12)C1CCCCN1 (centres undefined)
AC50 [5]: 16 µM (active) | AC50 [6]: 10.8 µM (active) | AC50 [7]: 15.4 µM (active)

CCOC(=O)c1c(O)nc2ccccc2c1N1CCCCC1
EC50 [12]: > 195 µM (not active) | EC50 [1]: > 112 µM (not active) | EC50 [2]: > 112 µM (not active)

COC(=O)Cc1ccc(NC(=S)NCCC(C)C)cc1
EC50 [3]: > 53 µM (inactive) | IC50 [4]: > 47.1 µM (inactive)

COc1ccc(P(=O)(COc2ccc([N+](=O)[O-])cc2)c2ccc(OC)cc2)cc1
EC50 [1]: > 112 µM (not active) | EC50 [2]: > 112 µM (not active)

C[C@@H]1CCCCO[C@@H](CN(C)Cc2ccc(Cl)c(Cl)c2)[C@H](C)CN([C@@H](C)CO)C(=O)c2cc(NS(=O)(=O)c3ccccc3)ccc2O1
AC50 (Paired box protein Pax-8): 13.4 µM (active)

C[C@@H]1CN([C@H](C)CO)C(=O)c2cc(NC(=O)Nc3ccc(F)cc3)ccc2O[C@@H](C)CCCCO[C@H]1CN(C)Cc1ccc(Cl)c(Cl)c1
AC50 (Paired box protein Pax-8): 9.51 µM (active)

Cc1cccc(C)c1N1CCN(C(=O)c2ccc3c(c2)OCO3)CC1
EC50 [3]: > 53 µM (inactive) | IC50 [4]: > 47.1 µM (inactive)

CN(C1=C(N2CCCCC2)C(=O)c2ccccc2C1=O)c1ccccc1
IC50 (Nonstructural protein 1): 6.94 µM (active)

CN(C)c1ccc(C2CC(c3cccc(NS(C)(=O)=O)c3)=NN2C(=O)c2ccccc2)cc1 (centres undefined)
IC50 (Nonstructural protein 1): > 100 µM (active)

O=C(CCc1ccccc1)Nc1c(F)cccc1F
EC50 [3]: > 53 µM (inactive) | IC50 [4]: > 47.1 µM (inactive)

COc1cccc(=O)c2c(C)oc(C)c12
EC50 [10]: > 300 µM (not active) | EC50 [11]: > 300 µM (not active)

O=c1[nH]n(-c2ncnc3c2cnn3-c2ccccc2)c(=O)c2ccccc12
EC50 [10]: 11.6 µM (active) | EC50 [11]: 7.26 µM (active)

O=C1C(NS(=O)(=O)c2cccs2)=C(N2CCN(c3ccccc3)CC2)C(=O)c2ccccc21
IC50 (Nonstructural protein 1): 21.6 µM (active)

Cc1nc(Nc2nc(CSc3nc4ccccc4[nH]3)cc(=O)[nH]2)nc2ccccc12
AC50 (Paired box protein Pax-8): 9.16 µM (active)

COc1ccc(CNCCC(c2ccc(OC(C)C)cc2)c2ccccc2OC)cc1OC (centres undefined)
AC50 [5]: 19.1 µM (active) | AC50 [6]: 4.35 µM (active) | AC50 [7]: 5.37 µM (active)

CCC(Oc1ccccc1)C(=O)Nc1ccccn1 (centres undefined)
EC50 [10]: > 300 µM (not active) | EC50 [11]: > 300 µM (not active)
